# Measured values: paper PMC10951960, “CGP7930 - An allosteric modulator of GABABRs, GABAARs and inwardly-rectifying potassium channels” (Neuropharmacology, 2023)
# Read-outs that look alike come from different tables or passages of the source.
# How the values were obtained:
# [1] = target: T1, GABAB receptors (R1a and R2) (Mus musculus, UniProt Q80T41+Q9WV18); test: GABA-activated K+ currents in GIRK cells (HEK cells stably expressing Kir3.1/3.2, transfected with GABAB R1a and R2), whole-cell patch clamp; format: cell-based, murine
# T1 construct: expressed in transfected cells; host or cells: HEK-293 cells stably expressing Kir3.1/3.2 (GIRK cells)
# T1 sequence (Q9WV18 20-960): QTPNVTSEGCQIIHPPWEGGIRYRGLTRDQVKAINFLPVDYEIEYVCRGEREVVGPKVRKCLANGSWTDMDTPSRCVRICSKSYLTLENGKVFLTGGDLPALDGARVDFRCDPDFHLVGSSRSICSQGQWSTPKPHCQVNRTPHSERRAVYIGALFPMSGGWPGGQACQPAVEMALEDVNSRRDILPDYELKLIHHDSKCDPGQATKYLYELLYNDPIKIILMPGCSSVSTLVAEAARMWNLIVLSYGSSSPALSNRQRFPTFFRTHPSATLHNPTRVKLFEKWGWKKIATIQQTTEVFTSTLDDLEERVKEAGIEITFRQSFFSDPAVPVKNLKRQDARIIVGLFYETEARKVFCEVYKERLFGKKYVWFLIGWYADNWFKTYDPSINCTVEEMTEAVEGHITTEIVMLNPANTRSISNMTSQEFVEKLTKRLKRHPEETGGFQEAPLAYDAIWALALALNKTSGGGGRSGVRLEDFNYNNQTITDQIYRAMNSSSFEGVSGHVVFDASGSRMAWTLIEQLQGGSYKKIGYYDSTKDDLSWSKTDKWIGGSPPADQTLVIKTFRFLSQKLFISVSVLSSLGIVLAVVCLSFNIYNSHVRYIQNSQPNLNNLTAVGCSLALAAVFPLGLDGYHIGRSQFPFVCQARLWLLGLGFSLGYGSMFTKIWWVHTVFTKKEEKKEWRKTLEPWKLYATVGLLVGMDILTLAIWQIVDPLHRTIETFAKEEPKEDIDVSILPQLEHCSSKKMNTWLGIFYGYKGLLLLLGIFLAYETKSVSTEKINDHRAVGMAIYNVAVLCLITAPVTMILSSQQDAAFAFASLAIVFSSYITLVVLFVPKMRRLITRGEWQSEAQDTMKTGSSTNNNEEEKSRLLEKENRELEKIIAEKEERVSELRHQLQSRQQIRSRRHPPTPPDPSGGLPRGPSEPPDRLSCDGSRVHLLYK
# T1 sequence (Q80T41 41-940): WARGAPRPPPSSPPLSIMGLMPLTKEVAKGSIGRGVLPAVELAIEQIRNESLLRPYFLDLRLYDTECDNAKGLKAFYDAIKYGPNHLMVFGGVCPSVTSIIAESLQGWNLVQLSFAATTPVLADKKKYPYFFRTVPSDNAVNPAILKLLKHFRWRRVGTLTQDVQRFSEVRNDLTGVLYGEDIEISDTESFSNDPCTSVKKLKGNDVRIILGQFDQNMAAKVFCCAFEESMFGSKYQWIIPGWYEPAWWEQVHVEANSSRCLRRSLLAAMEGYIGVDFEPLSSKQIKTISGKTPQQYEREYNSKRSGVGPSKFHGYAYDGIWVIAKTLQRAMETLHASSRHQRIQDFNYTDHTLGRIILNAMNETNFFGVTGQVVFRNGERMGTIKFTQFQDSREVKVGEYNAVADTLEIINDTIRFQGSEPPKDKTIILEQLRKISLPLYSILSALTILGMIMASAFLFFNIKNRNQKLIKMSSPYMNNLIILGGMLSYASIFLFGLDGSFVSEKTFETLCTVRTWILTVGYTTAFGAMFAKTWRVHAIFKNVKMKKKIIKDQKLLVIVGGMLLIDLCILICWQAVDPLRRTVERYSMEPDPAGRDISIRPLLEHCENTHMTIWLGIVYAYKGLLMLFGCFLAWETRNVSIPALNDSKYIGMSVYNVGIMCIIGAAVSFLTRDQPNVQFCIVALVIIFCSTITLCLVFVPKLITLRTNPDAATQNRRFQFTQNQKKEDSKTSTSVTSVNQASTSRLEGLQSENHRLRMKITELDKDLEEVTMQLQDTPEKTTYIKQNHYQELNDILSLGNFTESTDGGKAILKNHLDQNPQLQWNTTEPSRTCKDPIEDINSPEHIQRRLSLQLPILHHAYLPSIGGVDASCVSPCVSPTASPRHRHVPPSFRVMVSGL
# Protocol: (§1) CGP55845, and other drugs, were obtained from Merck (Sigma-Aldrich) unless otherwise stated.
# (§2) All cell culture reagents were acquired from ThermoFisher unless otherwise stated. […] These cells are referred to as GIRK cells throughout the text and were transiently transfected with cDNAs for eGFP, GABAB R1a and R2 in a 1:1:5 ratio applied 1–2 h after cell plating.
# Spontaneous inhibitory postsynaptic currents (sIPSCs) were recorded from cultured hippocampal neurons at 12–17 days in vitro (DIV). […] GABABR-activated K^+ currents in cultured neurons were recorded in the additional presence of 2 mM kynurenic acid and 20 μM picrotoxin.
# (§3) Borosilicate glass electrodes (3–5 MΩ) were filled with a K^+-based internal solution for recording GIRK currents containing (mM): 120 KCl, 2 MgCl2, 11 EGTA, 30 KOH, 10 HEPES, 1 CaCl2, 1 GTP, 2 ATP, 14 creatine phosphate, pH 7.0. GABAAR currents and sIPSCs were recorded with a Cs-based internal solution containing (mM): 120 CsCl, 1 MgCl2, 11 EGTA, 30 KOH, 10 HEPES, 1 CaCl2, and 2 K2ATP; pH 7.2. […] Cells were held at −60 mV (sIPSCs) or −60/−70 mV (K^+ currents). Voltage clamp recordings were undertaken after optimising series resistance (Rs, <10 MΩ) and compensating for the whole-cell membrane capacitance. Membrane currents were filtered at 5 kHz (−3 dB, 6th pole Bessel, 36 dB/octave) and stored for analysis with Clampex 10.
# (§4) Concentration-response curves were generated by measuring the current (I) for each ligand concentration and normalising to the maximal current response (Imax).
# These cells were bathed in high external K^+ concentration Krebs to reverse the direction of net K^+ current flow.
# [2] = test system: native GABAARs in hippocampal neurons; test: muscimol-activated and CGP7930-activated GABAAR currents in hippocampal neurons, Cs+-based internal solution; format: cell-based, rat
# Protocol: Briefly, single cells derived from dissected hippocampi were seeded onto glass coverslips coated with poly-D-lysine in a plating medium containing minimum essential media with 5% v/v heat-inactivated FCS, 5% v/v heat-inactivated horse serum, penicillin-G/streptomycin (100 U/100 μg/ml), 2 mM L-glutamine, and 20 mM glucose. Two hr after plating the media was changed to a Neurobasal-A based maintenance media supplemented with 1% v/v B-27, penicillin-G/streptomycin (100 U/100 μg/ml), 0.5% v/v Glutamax and 35 mM glucose.
# (§5) Spontaneous inhibitory postsynaptic currents (sIPSCs) were recorded from cultured hippocampal neurons at 12–17 days in vitro (DIV). […] For recording K^+ currents in GIRK cells and neurons, the bath solution was switched to a high K^+ solution containing 25 mM KCl and reduced NaCl (120 mM), to shift the equilibrium potential for K^+ from approximately −90 to −47 mV, thus reversing the direction of K^+ current flux to net inward. GABABR-activated K^+ currents in cultured neurons were recorded in the additional presence of 2 mM kynurenic acid and 20 μM picrotoxin.
# as §3, §4
# α1β2γ2L GABAAR = target: T2, α1β2γ2L GABAAR (Mus musculus, UniProt P22723+P62812+P63137); test: whole-cell currents of recombinant GABAA receptors in HEK-293 cells (α1β2γ2L); format: cell-based, murine
# T2 construct: expressed in transfected cells; host or cells: HEK-293T
# T2 sequence (P62812 28-455): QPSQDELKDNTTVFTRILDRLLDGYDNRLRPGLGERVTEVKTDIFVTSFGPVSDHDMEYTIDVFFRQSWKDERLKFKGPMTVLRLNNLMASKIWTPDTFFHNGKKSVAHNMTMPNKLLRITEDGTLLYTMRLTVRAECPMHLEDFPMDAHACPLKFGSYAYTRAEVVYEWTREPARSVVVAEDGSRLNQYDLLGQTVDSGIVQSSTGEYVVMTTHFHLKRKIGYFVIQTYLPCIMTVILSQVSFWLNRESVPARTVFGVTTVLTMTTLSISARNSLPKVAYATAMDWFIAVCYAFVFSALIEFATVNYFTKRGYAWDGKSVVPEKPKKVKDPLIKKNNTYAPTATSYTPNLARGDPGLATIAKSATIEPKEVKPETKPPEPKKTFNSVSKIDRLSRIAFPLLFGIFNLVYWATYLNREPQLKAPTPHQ
# T2 sequence (P63137 25-512 limits assumed): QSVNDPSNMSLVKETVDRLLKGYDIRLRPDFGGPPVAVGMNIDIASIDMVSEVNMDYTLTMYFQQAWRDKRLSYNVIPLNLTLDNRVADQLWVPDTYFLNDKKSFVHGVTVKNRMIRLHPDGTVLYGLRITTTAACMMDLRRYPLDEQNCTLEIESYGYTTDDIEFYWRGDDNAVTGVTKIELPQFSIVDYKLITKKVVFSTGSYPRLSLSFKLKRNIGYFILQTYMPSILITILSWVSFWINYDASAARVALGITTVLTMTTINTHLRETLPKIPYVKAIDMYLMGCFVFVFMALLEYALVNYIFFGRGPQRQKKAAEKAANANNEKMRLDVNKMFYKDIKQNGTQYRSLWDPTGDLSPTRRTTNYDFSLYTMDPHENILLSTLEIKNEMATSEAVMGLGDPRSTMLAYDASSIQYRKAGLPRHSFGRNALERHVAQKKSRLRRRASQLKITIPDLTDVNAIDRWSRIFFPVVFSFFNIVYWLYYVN
# T2 sequence (P22723 39-474): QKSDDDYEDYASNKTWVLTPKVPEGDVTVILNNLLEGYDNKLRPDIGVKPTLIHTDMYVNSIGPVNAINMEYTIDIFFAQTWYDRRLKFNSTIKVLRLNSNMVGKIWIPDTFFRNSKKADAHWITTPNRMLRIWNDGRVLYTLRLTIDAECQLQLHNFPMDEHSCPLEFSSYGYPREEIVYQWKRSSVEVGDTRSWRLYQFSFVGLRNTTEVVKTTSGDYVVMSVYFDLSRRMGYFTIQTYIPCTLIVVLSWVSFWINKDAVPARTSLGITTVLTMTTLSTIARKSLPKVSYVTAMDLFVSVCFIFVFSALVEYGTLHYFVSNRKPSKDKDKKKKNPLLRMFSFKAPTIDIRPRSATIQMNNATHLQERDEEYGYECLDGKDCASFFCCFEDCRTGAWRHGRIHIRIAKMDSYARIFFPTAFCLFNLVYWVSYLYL
# Protocol: as §1, §2, §5, §3, §4
# We explored the ability of CGP7930 to modulate different recombinant GABAARs expressed in HEK-293 cells to avoid confounds arising from heterogeneous receptor subtypes in neurons.
# [3] = test system: GABAARs in hippocampal neurons; test: slow inward current directly activated by CGP7930 in hippocampal neurons in high K+ external solution and its block by GABAAR antagonists; format: cell-based, rat; settings: hippocampal neurons, high external K+
# Protocol: as §5
# CGP7930 modulation at neuronal GABABRs was also characterised using baclofen-activated GIRK currents in hippocampal cultures similarly bathed in a high external K^+ concentration.
compound,measurement,setting,value
"CC(C)(CO)Cc1cc(C(C)(C)C)c(O)c(C(C)(C)C)c1 [CGP7930, 3-(3′,5′-Di-tert-butyl-4′-hydroxy) phenyl-2,2-dimethylpropanol]",direct receptor activation of GABABRs,"[1]; GIRK cells, CGP7930 pre-applied alone",no indication of direct receptor activation
same,"potentiation reached, of the maximum GABA current activation of GABABRs","[1]; GIRK cells, ∼EC20 GABA",~30%
same,concentration at which GABABR signalling is inhibited,[1]; highlights statement,> 3 µM
same,EC50,[1]; read-out: EC50 for CGP7930 modulating EC20 GABAB receptor activated currents,11.1 ± 7 µM
same,IC50,[1]; read-out: IC50 for CGP7930 modulating EC20 GABAB receptor activated currents,10.5 ± 2 µM
same,maximal direct activation compared to maximal GABAAR activation by saturating muscimol,"[2]; hippocampal neurons, n = 8",42.1 ± 1.8%
same,EC50,"[2]; hippocampal neurons, n = 8, read-out: EC50 for direct activation (CGP7930 alone)",5.2 ± 0.1 µM
same,EC50,"[2]; ∼EC10-15 muscimol (0.5 μM), direct effect subtracted, n = 10, read-out: EC50 for CGP7930 potentiation of muscimol response",2 ± 1.1 µM
same,IC50,"[2]; ∼EC10-15 muscimol (0.5 μM), direct effect subtracted, n = 10, read-out: IC50 of bell-shaped muscimol potentiation curve",7.9 ± 1.8 µM
same,IC50,α1β2γ2L GABAAR,6.6 ± 2.3 µM
same,EC50,"α1β2γ2L GABAAR; EC50 of GABA EC20 modulation curve, α1β2γ2L, ∼EC20 GABA, direct effects subtracted, n = 5",1.7 ± 1.3 µM
same,EC50,"α1β2γ2L GABAAR; α1β2γ2L (αβγ), read-out: EC50 for direct activation by CGP7930 alone",9.3 ± 0.7 µM
same,threshold for direct activation,"α1β2γ2L GABAAR; α1β2γ2L, CGP7930 alone",1 to 3 µM
same,concentration at which clear direct activation became evident,"α1β2γ2L GABAAR; α1β2γ2L, pre-application",3 to 10 µM
same,threshold for potentiation of the GABA current,"α1β2γ2L GABAAR; α1β2γ2L, pre-application",1 µM
same,concentration at which pre-application caused a slow inward current,[3],> 3 µM
